In assay [1] the target is T1, E3 ubiquitin-protein ligase CBL-B (Homo sapiens, UniProt Q13191). As to the kind of experiment: Binding affinity to recombinant His-tagged Cbl-b (unknown origin) (39 to 368 residues) expressed in Escherichia coli BL21 (DE3) using FITC-DGpYPEPA-NH2 as substrate incubated for 30 mins by fluorescence polarization assay. (In general: In fluorescence polarisation assays a small probe gives low polarisation when free and higher when bound to something large.)

The target in assay [2] is T1, E3 ubiquitin-protein ligase CBL-B. The experiment in a line: Binding affinity to recombinant His-tagged Cbl-b (unknown origin) (39 to 368 residues) expressed in Escherichia coli BL21 (DE3) assessed as dissociation constant by bio-layer interferometry assay. In general terms: In BLI a coated tip is dipped into the sample, and binding shifts an interference pattern.

Where a SMILES comes first, the peptide text is derived from it. [ ]: non-standard residue; d: D form. pY = N[C@@H](Cc1ccc(OP(=O)(O)O)cc1)C(=O)O

As a reminder, the IC50 is the concentration at which inhibition is half-maximal. By Kd is commonly meant the constant that tells how readily two partners part at equilibrium.

T1 sequence (Q13191 whole entry, the tested form may be a part): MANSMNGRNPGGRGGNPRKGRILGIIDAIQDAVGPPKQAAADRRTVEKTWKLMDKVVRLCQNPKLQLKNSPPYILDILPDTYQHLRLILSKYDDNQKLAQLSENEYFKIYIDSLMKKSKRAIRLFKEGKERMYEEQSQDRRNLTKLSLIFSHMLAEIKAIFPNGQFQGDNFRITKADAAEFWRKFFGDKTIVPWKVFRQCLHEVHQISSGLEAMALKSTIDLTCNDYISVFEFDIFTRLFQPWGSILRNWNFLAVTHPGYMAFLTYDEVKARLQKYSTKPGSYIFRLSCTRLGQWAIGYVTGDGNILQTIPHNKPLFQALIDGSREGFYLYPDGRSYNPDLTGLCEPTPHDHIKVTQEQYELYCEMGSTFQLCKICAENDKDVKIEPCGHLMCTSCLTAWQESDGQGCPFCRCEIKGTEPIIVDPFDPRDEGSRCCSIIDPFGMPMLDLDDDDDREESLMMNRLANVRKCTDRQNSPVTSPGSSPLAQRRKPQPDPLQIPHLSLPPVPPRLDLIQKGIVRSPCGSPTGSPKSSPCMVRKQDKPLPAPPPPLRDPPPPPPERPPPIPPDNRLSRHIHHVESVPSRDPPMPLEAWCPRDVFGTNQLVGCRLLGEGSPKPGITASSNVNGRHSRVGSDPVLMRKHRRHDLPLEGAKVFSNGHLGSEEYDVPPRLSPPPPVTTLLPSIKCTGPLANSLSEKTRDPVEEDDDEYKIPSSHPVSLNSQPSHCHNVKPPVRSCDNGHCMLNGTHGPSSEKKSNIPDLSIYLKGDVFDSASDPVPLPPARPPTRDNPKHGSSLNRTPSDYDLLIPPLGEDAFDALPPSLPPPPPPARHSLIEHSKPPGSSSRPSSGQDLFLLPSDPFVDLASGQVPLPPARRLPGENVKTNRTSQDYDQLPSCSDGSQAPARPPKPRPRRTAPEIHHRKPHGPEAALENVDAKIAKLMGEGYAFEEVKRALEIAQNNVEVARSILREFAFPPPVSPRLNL

With Ac-ETPEP-NH2, the half-maximal inhibitory concentration (IC50) in assay [1] is more than 1000 µM.
Consider `CC(=O)N[C@@H](CC(C)C)C(=O)N[C@@H](CCC(N)=O)C(=O)N[C@@H](CCCNC(=N)N)C(=O)N[C@@H](Cc1ccc(OP(=O)(O)O)cc1)C(=O)N[C@@H](CO)C(=O)N[C@@H](CO)C(=O)N[C@@H](CC(=O)O)C(=O)N1CCC[C@H]1C(=O)N[C@H](C(=O)NCC(N)=O)[C@@H](C)O` (Ac-LQR[pY]SSDPTG-NH2), for which, in assay [2], the Kd was 8.28 µM.
As to `CC(=O)N[C@@H](CCCNC(=N)N)C(=O)N[C@@H](Cc1ccc(OP(=O)(O)O)cc1)C(=O)N[C@H](C(=O)N1CCC[C@H]1C(=O)N[C@@H](CCC(=O)O)C(=O)N1CCC[C@H]1C(N)=O)[C@@H](C)O` (Ac-R[pY]TPEP-NH2), in assay [2], the dissociation constant Kd was 0.763 µM.
On to `CC(=O)N[C@@H](Cc1ccc(OP(=O)(O)O)cc1)C(=O)N[C@H](C(=O)N1CCC[C@H]1C(=O)N[C@@H](CCC(=O)O)C(=O)N1CCC[C@H]1C(N)=O)[C@@H](C)O`, for which, in assay [1], the IC50 stood at 7.84 µM. In addition, the dissociation constant (Kd) in assay [2] stood at 5.55 µM.
For `CC(=O)N[C@@H](Cc1ccc(OP(=O)(O)O)cc1)C(=O)N[C@H](C(=O)N1CCC[C@H]1C(=O)N[C@@H](CCC(=O)O)C(N)=O)[C@@H](C)O` (Ac-[pY]TPE-NH2), the IC50 in assay [1] amounted to 398 µM. In addition, the Kd in assay [2] stood at 98.3 µM.
As to `CC(=O)N[C@@H](Cc1ccc(OP(=O)(O)O)cc1)C(=O)N[C@H](C(=O)N1CCC[C@H]1C(=O)N[C@@H](C)C(=O)N1CCC[C@H]1C(N)=O)[C@@H](C)O` (Ac-[pY]TPAP-NH2), in assay [1], the half-maximal inhibitory concentration (IC50) is 46.3 µM. For the same compound, the Kd in assay [2] stood at 18.5 µM.
On to `CC(=O)N[C@@H](CC(=O)O)C(=O)NCC(=O)N[C@@H](Cc1ccc(OP(=O)(O)O)cc1)C(=O)N[C@H](C(=O)N1CCC[C@H]1C(=O)N[C@@H](CCC(=O)O)C(=O)N1CCC[C@H]1C(=O)N[C@@H](C)C(N)=O)[C@@H](C)O` (Ac-DG[pY]TPEPA-NH2), for which, in assay [1], the IC50 was 10.6 µM. Further, the Kd in assay [2] came out at 24.4 µM.
As for `CC[C@H](C)[C@H](NC(=O)[C@@H](NC(=O)[C@H](Cc1ccc(OP(=O)(O)O)cc1)NC(C)=O)[C@@H](C)O)C(=O)N[C@@H](CCC(=O)O)C(=O)N1CCC[C@H]1C(N)=O` (Ac-[pY]TIEP-NH2), in assay [2], the Kd worked out at 35.5 µM.
Regarding `CC(=O)N[C@@H](Cc1ccc(OP(=O)(O)O)cc1)C(=O)N[C@@H](C)C(=O)N1CCC[C@H]1C(=O)N[C@@H](CCC(=O)O)C(=O)N1CCC[C@H]1C(N)=O` (Ac-[pY]APEP-NH2), the half-inhibitory concentration (IC50) in assay [1] stood at 104 µM. Also, in assay [2], the Kd is 57.1 µM.
Turning to `CC(=O)NCC(=O)N[C@@H](Cc1ccc(OP(=O)(O)O)cc1)C(=O)N[C@H](C(=O)N1CCC[C@H]1C(=O)N[C@@H](CCC(=O)O)C(=O)N1CCC[C@H]1C(N)=O)[C@@H](C)O` (Ac-G[pY]TPEP-NH2), the half-maximal inhibitory concentration (IC50) in assay [1] was 11.3 µM. In assay [2], the dissociation constant (Kd) was 22.4 µM.
Consider `C[C@@H](O)[C@H](NC(=O)[C@H](Cc1ccc(OP(=O)(O)O)cc1)NC(=O)CN)C(=O)N1CCC[C@H]1C(=O)N[C@@H](CCC(=O)O)C(=O)O` (H-G[pY]TPE-OH), for which the half-inhibitory concentration (IC50) in assay [1] was more than 1000 µM.
For the compound `CC(=O)N[C@@H](Cc1ccc(OP(=O)(O)O)cc1)C(=O)N[C@H](C(=O)N1CCC[C@H]1C(=O)N[C@@H](CC(=O)O)C(=O)N1CCC[C@H]1C(N)=O)[C@@H](C)O` (Ac-[pY]TPDP-NH2), the Kd in assay [2] is 22.9 µM.
Regarding `CC(=O)N[C@@H](Cc1ccc(OP(=O)(O)O)cc1)C(=O)N[C@H](C(=O)N[C@@H](CC(C)C)C(=O)N[C@@H](CCC(=O)O)C(=O)N1CCC[C@H]1C(N)=O)[C@@H](C)O` (Ac-[pY]TLEP-NH2), the dissociation constant Kd in assay [2] was determined as 29.8 µM.
As to `CC(=O)N[C@@H](Cc1ccc(OP(=O)(O)O)cc1)C(=O)N[C@H](C(=O)N1CCC[C@H]1C(=O)N[C@@H](CCC(=O)O)C(=O)N[C@@H](Cc1ccccc1)C(N)=O)[C@@H](C)O` (Ac-[pY]TPEF-NH2), the Kd in assay [2] came to 33.5 µM.
With `CC(=O)N[C@@H](Cc1ccc(OP(=O)(O)O)cc1)C(=O)N[C@H](C(=O)N[C@@H](C)C(=O)N[C@@H](CCC(=O)O)C(=O)N1CCC[C@H]1C(N)=O)[C@@H](C)O` (Ac-[pY]TAEP-NH2), in assay [1], the IC50 came out at 27.3 µM. Further, the Kd in assay [2] was found to be 24.4 µM.
With `CC(=O)N[C@@H](Cc1ccc(OP(=O)(O)O)cc1)C(=O)N[C@H](C(=O)N1CCC[C@H]1C(=O)N[C@@H](CCC(N)=O)C(=O)N1CCC[C@H]1C(N)=O)[C@@H](C)O` (Ac-[pY]TPQP-NH2), the Kd in assay [2] is 43.4 µM.

For the origin of these results see ChEMBL document CHEMBL4819076, “An affinity prediction approach for the ligand of E3 ligase Cbl-b and an insight into substrate binding pattern” (Bioorg Med Chem, 2021).
